According to ChEMBL document CHEMBL5726657, “Substituted pyrrolo[3,4-e]indolizines, imidazo[1,2-a]pyrrolo[3,4-e]pyridines, pyrrolo[3,4-e][1,2,4]triazolo[1,5-a]pyridines and pyrrolo[3,4-e][1,2,4]triazolo[4,3-a]pyridines as positive allosteric modulators of muscarinic acetylcholine receptor M1” (2019):
pEC50: −log10 of the molar value.

Biological target: T1, Muscarinic acetylcholine receptor M1 (Homo sapiens, UniProt P11229)
T1 sequence (P11229 whole entry): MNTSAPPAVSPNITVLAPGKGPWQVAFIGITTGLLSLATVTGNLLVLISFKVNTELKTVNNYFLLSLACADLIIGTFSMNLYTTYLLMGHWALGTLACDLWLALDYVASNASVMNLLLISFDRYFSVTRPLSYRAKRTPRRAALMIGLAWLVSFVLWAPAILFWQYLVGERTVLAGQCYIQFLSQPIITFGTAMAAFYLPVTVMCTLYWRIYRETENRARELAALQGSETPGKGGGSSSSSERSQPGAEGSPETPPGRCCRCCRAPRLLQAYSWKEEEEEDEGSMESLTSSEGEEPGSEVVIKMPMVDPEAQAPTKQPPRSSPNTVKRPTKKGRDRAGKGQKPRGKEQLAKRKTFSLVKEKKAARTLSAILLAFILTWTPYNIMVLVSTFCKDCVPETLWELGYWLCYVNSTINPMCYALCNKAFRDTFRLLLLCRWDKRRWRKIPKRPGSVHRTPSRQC
Assay: Cell-Based Functional Assay of Muscarinic Acetylcholine Receptor: For high throughput measurement of agonist-evoked increases in intracellular calcium, CHO-K1 cells stably expressing muscarinic receptors were plated in growth medium lacking G418 and hygromycin at 15,000 cells/20 μL/well in Greiner 384-well black-walled, tissue culture (TC)-treated, clear-bottom plates (VWR). Cells were incubated overnight at 37° C. and 5% CO2. The next day, cells were washed using an ELX 405 (BioTek) with four washes (80 μL) of assay buffer then aspirated to 20 μL. Next, 20 μL of 16 μM Fluo-4/acetoxymethyl ester (Invitrogen, Carlsbad, Calif.) prepared as a 2.3 mM stock in DMSO and mixed in a 1:1 ratio with 10% (w/v) Pluronic F-127 and diluted in assay buffer was added to the wells and the cell plates were incubated for 50 min at 37° C. and 5% CO2. Dye was removed by washing with the ELX 405 (four 80 μL washes of assay buffer) then aspirated to 20 μL. Compound master plates were formatted in an 11 point CRC format (1:3 dilutions) in 100% DMSO with a starting concentration of 10 mM using the BRAVO liquid handler (Agilent). […]

Compound `Cn1cc2cc(-c3cc(F)c(CN4Cc5ccc6nccn6c5C4=O)c(F)c3)ccc2n1` has a pEC50 of 5.00.
